In patent publication US12583867B2, “Pyridone derivative crystal form and preparation method and application therefor” (priority 2019, dated 2026):

Columns and labels:
[1] = system: influenza A virus (H1N1, A/WSN/33); experiment: Efficacy on mice, IAV mouse infection model; format: in vivo, BALB/c mice; details: 15 mpk orally twice a day; for Body weight change: infected mice, during the experiment; for Mean difference of virus titer compared with the menstruum group: mice, 5th day after virus infection
Source text: Female BALB/c mice were inoculated with influenza A virus (H1N1, A/WSN/33) by intranasal administration to establish an IAV mouse infection model. Menstruum, the compound of formula (1) (15 mpk) or oseltamivir phosphate (15 mpk) were orally administered twice a day. Animal weight and survival status were monitored daily during the test, and on the 5th day, some animals were sacrificed to take lung tissue for virus titer detection, and the remaining mice were used for survival rate monitoring. The in vivo anti-influenza virus efficacy of the test compound was determined by virus titer in lung tissue, mouse body weight change and survival rate.

[2] = Solid state stability of the crystal form (XRPD, HPLC); format: physicochemical
Experimental: The crystal form F samples of the compound of formula (1) were placed at 60° C. for 30 days, at 25° C./92.5% RH for 30 days, and exposed to light for 15 days, respectively. The physical and chemical stability of the samples were tested by XRPD and HPLC.

[3] = Mechanical stability: XRPD before and after jet milling; format: physicochemical; details: jet milled to D90≤10 μm
Source text: In addition, 224.90 g of the above compound of the formula (1) was jet milled (feed pressure 0.4 to 0.5 MPa, milling pressure 0.18 to 0.22 MPa) to give 212.00 g sample with a particle size of D90≤10 μm.

[4] = Hygroscopicity by dynamic vapour sorption (DVS); format: physicochemical
Experimental: • Instrument model: Bruker D8 Venture single-crystal diffractometer • Light source: Mo target • X-ray: Mo—K (=0.71073 Å) • Detector: CMOS based detector • Resolution: 0.84 Å • Current and voltage: 50 kV, […] 2. X-Ray Powder Diffraction (XRPD) • Instrument model: PANalytical X'Pert3 Power • X-ray: Cu, Kα, Kα1 (Å): 1.540598; Kα2 (Å): 1.544426 • X-ray tube setting: 45 kV, 40 mA • Divergence slit: 1/8° • Scan pattern: continuous • Scanning range (2θ): 3°-40° • Scan step size (2θ): 0.0263° 3. Differential Scanning Calorimetry (DSC) • Instrument model: TA Q2000/2500 differential scanning calorimeter • Heating rate: 10° C./min • Temperature range: 25° C. to setting end-point temperature • Shielding gas: nitrogen 4. Thermogravimetric Analysis (TGA) • Instrument model: TA Q5000/5500 thermogravimetric analyzer • Heating rate: 10° C./min • Temperature range: room temperature to setting end-point temperature • Shielding gas: nitrogen 5. Dynamic Vapour Sorption (DVS) • Instrument model: SMS DVS Intrinsic vapour sorption analyzer • Temperature: 25° C. • RH range: 0% RH-95% RH • Shielding gas: nitrogen

[5] = Light (white light 4500 Lux, ultraviolet light 90 μw/cm^2)/15 days

With COC(=O)OCOc1c2n(ccc1=O)N([C@@H]1c3ccccc3SCc3c1ccc(F)c3F)[C@@H]1COC3(CC3)CN1C2=O [Compound of formula (1), (((R)-12′-((S)-7,8-difluoro-6,11-dihydrodibenzo[b,e]thiepin-11-yl)-6′,8′-dioxo-6′,8′,12′,12a′-tetrahydro-1′H,4′H-spiro[cyclopropane-1,3′-[1,4]oxazino[3,4-c]pyrido[2,1-f][1,2,4]triazin]-7′-yl)oxy)methyl methyl carbonate] the Body weight change [1] was “remained stable during the experiment, had no significant decline” and the “Mean difference of virus titer compared with the menstruum group” value [1] was 3.92 Log10 (plaques number/gram of.

With CCOC(=O)C1=C[C@@H](OC(CC)CC)[C@H](NC(C)=O)[C@@H](N)C1 [Oseltamivir phosphate, oseltamivir phosphate, reference compound] the Body weight change [1] was “remained stable during the experiment, had no significant decline” and the “Mean difference of virus titer compared with the menstruum group” value [1] was 3.46 Log10 (plaques number/gram of.

For COC(=O)OCOc1c2n(ccc1=O)N([C@@H]1c3ccccc3SCc3c1ccc(F)c3F)[C@@H]1COC3(CC3)CN1C2=O [crystal form F], the Appearance and character ([2]; 25° C./92.5% RH/30 days) was “White”, the Crystal form change ([2]; 25° C./92.5% RH/30 days) was “No” and the “Purity (area %)” value ([2]; 25° C./92.5% RH/30 days) was 99.0 area %. The “Purity/initial (%)” value ([2]; 25° C./92.5% RH/30 days) was 100.4%, the Appearance and character ([2]; 60° C./30 days) was “White” and the Crystal form change ([2]; 60° C./30 days) was “No”. The “Purity (area %)” value ([2]; 60° C./30 days) was 98.7 area %, the “Purity/initial (%)” value ([2]; 60° C./30 days) was 100.1% and the Appearance and character ([2]; Initial) was “White”. The Crystal form change ([2]; Initial) was “No”, the “Purity (area %)” value ([2]; Initial) was 98.6 area % and the Appearance and character [2, 5] was “White”. The Crystal form change [2, 5] was “No”, the “Purity (area %)” value [2, 5] was 98.5 area % and the “Purity/initial (%)” value [2, 5] was 99.9%. The “Crystal form before and after milling (XRPD)” value [3] was “does not change”, the “Crystal form before and after the DVS test (XRPD)” value ([4]; DVS at 25° C.) was “did not change” and the Moisture-absorption weight gain ([4]; DVS, 25° C./80% RH) was 0.10%.
